Earlier results as cited in patent publication US20090142809A1, “Method for Cleaving Cervimycin Monoesters” (LEIBNIZ-INSTITUT FÜR NATURSTOFF-FORSCHUNG UND INFE, priority 2005, published 2009).

What was measured:
[1] = system: multiresistant staphylococci; details: statement in words in the background section
[2] = system: vancomycin-resistant Enterococcus faecalis; details: statement in words in the background section

COC1=CC(=O)c2c(cc3c(c2O)C(=O)[C@@]2(O[C@H]4CC[C@H](O[C@H]5CC[C@H](O)[C@@H](C)O5)[C@@H](C)O4)C(O)=C(C(N)=O)C(=O)[C@H](O[C@H]4CC[C@H](O[C@H]5CC[C@H](O[C@H]6CC[C@H](O[C@H]7CC[C@H](O)[C@H](C)O7)[C@H](C)O6)[C@H](C)O5)[C@@H](C)O4)[C@H]2C3)C1=O [cervimycin K]
activity against multiresistant staphylococci [1]: extremely strong activity
activity against the vancomycin-resistant Enterococcus faecalis [2]: extremely strong activity
